We go through 62 compounds from patent US8178553B2, “Compounds for the treatment of inflammatory disorders” (Schering Corporation, priority 2006, dated 2012).

Each structure is given as a SMILES string. A value given as a limit tells only on which side of the number the result lay.

T1 sequence (P78536 215-477 S266A/N452Q): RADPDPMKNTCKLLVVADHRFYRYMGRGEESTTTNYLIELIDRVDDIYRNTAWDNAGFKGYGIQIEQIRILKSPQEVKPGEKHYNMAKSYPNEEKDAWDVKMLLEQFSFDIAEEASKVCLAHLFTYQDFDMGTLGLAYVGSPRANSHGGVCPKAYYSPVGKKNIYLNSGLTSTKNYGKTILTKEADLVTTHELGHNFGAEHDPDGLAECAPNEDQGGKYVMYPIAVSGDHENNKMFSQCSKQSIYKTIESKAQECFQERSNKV

One test addresses T1, purified catalytic domain of recombinant human TACE (rhTACEc) (Homo sapiens, UniProt P78536, N452Q/S266A).
T1 construct: rhTACEc, Residue 215 to 477 with two mutation (S266A and N452Q) and a 6xHis tail; 6xHis (C); made in house; host or cells: baculovirus/Hi5 insect cells
As to the kind of experiment: TACE kinetic assay, cleavage of internally quenched fluorescent peptide substrate SPDL-3. In kind it is biochemical. Particulars: Specific TACE inhibitory activity of representative compounds; read-out: Ki. As to the method: TACE activity is determined by a kinetic assay measuring the rate of increase in fluorescent intensity generated by TACE catalyzed cleavage of an internally quenched peptide substrate (SPDL-3). […] It is purified from the baculovirus/Hi5 cells expression system using affinity chromatography. […] MCA is (7-Methoxycoumarin-4-yl)acetyl. Dpa is N-3-(2,4-Dinitrophenyl)-L-2,3-diaminopropionyl.
A 50 μl assay mixture contains 20 mM HEPES, pH 7.3, 5 mM CaCl2, 100 µM ZnCl2, 2% DMSO, 0.04% Methylcellulose, 30 μM SPDL-3, 70 pM rhTACEc and a test compound. RhTACEc is pre-incubated with the testing compound for 90 min. at 25° C. Reaction is started by addition of the substrate. […] Rate of enzymatic reaction is shown as Units per second. Effect of a test compound is shown as % of TACE activity in the absence of the compound.
For `COc1ccc2c(c1)C(=O)N(C[C@@]1(c3ccc(S(C)(=O)=O)cc3)NC(=O)NC1=O)C2` [Compound 43], the inhibition constant (Ki) was found to be 0.26 nM.
As to `COc1ccc2c(c1)C(=O)N(C[C@@]1(c3cc4nc(S(C)(=O)=O)ccc4o3)NC(=O)NC1=O)C2` [Compound 50], the Ki turned out to be 1.04 nM.
Turning to `COc1ccc2c(c1)C(=O)N(C[C@@]1(c3ccc(-c4cc(C(=O)NC5CC5)cc(C)n4)cc3)NC(=O)NC1=O)C2` [Compound 64], the Ki was 0.15 nM.
On the same count and under the same terms, the value for `COc1ccc2c(c1)C(=O)N(C[C@@]1(c3ccc(-c4ncccc4C#N)cc3)NC(=O)NC1=O)C2` [Compound 66] was 0.09 nM.

The same test, now with this note: TACE inhibition, Table 1; read-out: Ki Rating.
`CCOC(=O)CC1(CN2Cc3ccc(OC)cc3C2=O)NC(=O)NC1=O` (stereo not drawn) [Compound 1]: the Ki is 10 to 100 nM.
On to `COc1ccc2c(c1)C(=O)N(CC1(CC(=O)O)NC(=O)NC1=O)C2` (stereo not drawn) [Compound 2], for which the Ki fell in the range of 100 to 1000 nM.
Consider `COc1ccc2c(c1)C(=O)N(CC1(CC(=O)N3CCOCC3)NC(=O)NC1=O)C2` (stereo not drawn) [Compound 3], for which the Ki was 10 to 100 nM.
On to `COc1ccc2c(c1)C(=O)N(CC1(CC(=O)N[C@@H](C)c3ccccc3)NC(=O)NC1=O)C2` (stereo partly drawn) [Compound 4], for which the Ki lay within 10 to 100 nM.
With `COc1ccc2c(c1)C(=O)N(CC1(CC(=O)N3CCCC3)NC(=O)NC1=O)C2` (stereo not drawn) [Compound 5], the Ki was less than 10 nM.
Consider `COc1ccc2c(c1)C(=O)N(CC1(CC(=O)NC3CCCCC3)NC(=O)NC1=O)C2` (stereo not drawn) [Compound 6], for which the Ki is 10 to 100 nM.
Regarding `COc1ccc2c(c1)C(=O)N(CC1(CC(=O)NC(C)C)NC(=O)NC1=O)C2` (stereo not drawn) [Compound 7], the Ki was 10 to 100 nM.
As to `CCN(CC)C(=O)CC1(CN2Cc3ccc(OC)cc3C2=O)NC(=O)NC1=O` (stereo not drawn) [Compound 8], the Ki lay within 10 to 100 nM.
On to `COc1ccc2c(c1)C(=O)N(CC1(CC(=O)N3CCCCC3)NC(=O)NC1=O)C2` (stereo not drawn) [Compound 9], for which the Ki is less than 10 nM.
For `COc1ccc2c(c1)C(=O)N(CC1(CC(=O)Nc3nc4ccccc4s3)NC(=O)NC1=O)C2` (stereo not drawn) [Compound 10], the Ki is less than 10 nM.
Same read-out and setting: the value for `COc1ccc2c(c1)C(=O)N(CC1(CC(=O)NCC(C)C)NC(=O)NC1=O)C2` (stereo not drawn) [Compound 11] was 10 to 100 nM; that for `COc1ccc2c(c1)C(=O)N(CC1(CC(=O)NCC3CCCO3)NC(=O)NC1=O)C2` (stereo not drawn) [Compound 12] was 10 to 100 nM; that for `COc1ccc2c(c1)C(=O)N(CC1(CC(=O)N3CCN(C)CC3)NC(=O)NC1=O)C2` (stereo not drawn) [Compound 13] was 10 to 100 nM.
The same measure, in the same setting: the value for `COc1ccc2c(c1)C(=O)N(CC1(CC(=O)N3CCC(Cc4ccccc4)CC3)NC(=O)NC1=O)C2` (stereo not drawn) [Compound 14] was less than 10 nM; that for `COc1ccc2c(c1)C(=O)N(CC1(CC(=O)N3CCc4ccccc4C3C3CC3)NC(=O)NC1=O)C2` (stereo not drawn) [Compound 15] was less than 10 nM; that for `COc1ccc2c(c1)C(=O)N(CC1(CC(=O)N3CCC(C#N)(c4ccccc4)CC3)NC(=O)NC1=O)C2` (stereo not drawn) [Compound 16] was 10 to 100 nM.
As to `COc1ccc2c(c1)C(=O)N(CC1(CC(=O)N3Cc4ccccc4C3)NC(=O)NC1=O)C2` (stereo not drawn) [Compound 17], the Ki fell in the range of 10 to 100 nM.
As for `COc1ccc2c(c1)CN(CC1(c3ccc(C#CCN(C)C)cc3)NC(=O)NC1=O)C2=O` (stereo not drawn) [Compound 18], the Ki is less than 10 nM.
`CN(C)CC#Cc1ccc([C@]2(CN3Cc4ccc(O)cc4C3=O)NC(=O)NC2=O)cc1` [Compound 19]: the Ki was in the range of 10 to 100 nM.
In the case of `COc1ccc2c(c1)CN(CC1(c3ccc(C#CCO)cc3)NC(=O)NC1=O)C2=O` (stereo not drawn) [Compound 20], the Ki is less than 10 nM.
Still for that read-out and setting: the value for `COc1ccc2c(c1)C(=O)N(C[C@]1(c3ccc(C#Cc4ccccn4)cc3)NC(=O)NC1=O)C2` [Compound 21] was 10 to 100 nM; that for `COc1ccc2c(c1)C(=O)N(C[C@@]1(c3ccc(C#Cc4ccccn4)cc3)NC(=O)NC1=O)C2` [Compound 22] was less than 10 nM.
On the same count and under the same terms, the result for `COc1ccc2c(c1)C(=O)N(C[C@@]1(c3ccc(-c4ccnc(C(N)=O)c4)cc3)NC(=O)NC1=O)C2` [Compound 23] reads less than 10 nM; that for `O=C1NC(=O)C(CN2Cc3ccsc3C2=O)(c2ccc(F)cc2)N1` (stereo not drawn) [Compound 26], 10 to 100 nM; that for `O=C1NC(=O)C(CN2Cc3ncccc3C2=O)(c2ccc(F)cc2)N1` (stereo not drawn) [Compound 27], greater than 1000 nM.
On to `O=C1NC(=O)C(CN2Cc3c[nH]c(=O)cc3C2=O)(c2ccc(F)cc2)N1` (stereo not drawn) [Compound 29], for which the Ki was in the range of 10 to 100 nM.
Turning to `COC(=O)c1ccc(C2(CN3Cc4ccc(OC)cc4C3=O)NC(=O)NC2=O)cc1` (stereo not drawn) [Compound 30], the Ki was less than 10 nM.
`COc1ccc2c(c1)C(=O)N(CC1(c3ccc(C(=O)O)cc3)NC(=O)NC1=O)C2` (stereo not drawn) [Compound 32]: the Ki was less than 10 nM.
On the same count and under the same terms, the value for `COc1ccc2c(c1)C(=O)N(CC1(c3ccc(S(C)(=O)=O)cc3)NC(=O)NC1=O)C2` (stereo not drawn) [Compound 33] was less than 10 nM.
For `COc1ccc2c(c1)C(=O)N(CC1(c3ccc(C(=O)N(C)C)cc3)NC(=O)NC1=O)C2` (stereo not drawn) [Compound 34], the Ki was in the range of 10 to 100 nM.
In the case of `N#Cc1ccc2c(c1)CN(CC1(c3ccc(F)cc3)NC(=O)NC1=O)C2=O` (stereo not drawn) [Compound 35], the inhibition constant Ki fell in the range of 10 to 100 nM.
With `O=C(O)Cc1ccc2c(c1)CN(CC1(c3ccc(F)cc3)NC(=O)NC1=O)C2=O` (stereo not drawn) [Compound 36], the Ki is 100 to 1000 nM.
`NC(=O)Cc1ccc2c(c1)CN(CC1(c3ccc(F)cc3)NC(=O)NC1=O)C2=O` (stereo not drawn) [Compound 37]: the Ki lay in the range of 10 to 100 nM.
The same measure, in the same setting: the result for `COc1ccc2c(c1)C(=O)N(C[C@@]1(c3cc4cc(C#N)cnc4o3)NC(=O)NC1=O)C2` [Compound 38] reads less than 10 nM.
For `COc1ccc2c(c1)C(=O)N(C[C@@]1(c3cc4cc(C(=O)O)cnc4o3)NC(=O)NC1=O)C2` [Compound 39], the Ki was less than 10 nM.
Same read-out and setting: the value for `COC(=O)c1ccc([C@@]2(CN3Cc4ccc(OC)cc4C3=O)NC(=O)NC2=O)cc1` [Compound 40] was 10 to 100 nM.
Consider `COC(=O)c1ccc([C@]2(CN3Cc4ccc(OC)cc4C3=O)NC(=O)NC2=O)cc1` [Compound 41], for which the Ki was less than 10 nM.
With `COc1ccc2c(c1)C(=O)N(C[C@]1(c3ccc(S(C)(=O)=O)cc3)NC(=O)NC1=O)C2` [Compound 42], the Ki lay within 100 to 1000 nM.
With `COc1ccc2c(c1)C(=O)N(C[C@@]1(c3ccc(S(C)(=O)=O)cc3)NC(=O)NC1=O)C2` [Compound 43], the Ki was less than 10 nM.
For `COc1ccc2c(c1)C(=O)N(C[C@@]1(c3cc4cc(S(C)(=O)=O)ccc4o3)NC(=O)NC1=O)C2` [Compound 44], the Ki is less than 10 nM.
Regarding `COC(=O)c1ncccc1C(=O)C[C@]1(CN2Cc3ccc(OC)cc3C2=O)NC(=O)NC1=O` [Compound 45], the Ki is 10 to 100 nM.
As for `COc1ccc2c(c1)C(=O)N(C[C@@]1(c3cc4ncccc4n3C(=O)OC(C)(C)C)NC(=O)NC1=O)C2` [Compound 46], the Ki was less than 10 nM.
Turning to `COc1ccc2c(c1)C(=O)N(C[C@@]1(CCc3ccc(F)c(C(N)=O)c3)NC(=O)NC1=O)C2` [Compound 47], the Ki lay in the range of 10 to 100 nM.
As to `COc1ccc2c(c1)C(=O)N(C[C@@]1(/C(Cc3c[nH]c(=O)c(C)c3)=N/O)NC(=O)NC1=O)C2` [Compound 48], the Ki lay within 10 to 100 nM.
Same read-out and setting: the value for `COc1ccc2c(c1)C(=O)N(C[C@@]1(c3cc4nc(SC)ccc4o3)NC(=O)NC1=O)C2` [Compound 49] was less than 10 nM; that for `COc1ccc2c(c1)C(=O)N(C[C@@]1(c3cc4nc(S(C)(=O)=O)ccc4o3)NC(=O)NC1=O)C2` [Compound 50] was less than 10 nM; that for `COc1ccc2c(c1)C(=O)N(C[C@@]1(c3ccc(-c4ccccc4C(N)=O)cc3)NC(=O)NC1=O)C2` [Compound 51] was less than 10 nM.
On the same count and under the same terms, the value for `COC(=O)c1cc(-c2ccc([C@]3(CN4Cc5ccc(OC)cc5C4=O)NC(=O)NC3=O)cc2)cnc1N` [Compound 52] was less than 10 nM; that for `COC(=O)c1cc(C)nc(-c2ccc([C@]3(CN4Cc5ccc(OC)cc5C4=O)NC(=O)NC3=O)cc2)c1` [Compound 53] was less than 10 nM.
As to `COC(=O)c1cnc(-c2ccc([C@]3(CN4Cc5ccc(OC)cc5C4=O)NC(=O)NC3=O)cc2)cn1` [Compound 54], the Ki was less than 10 nM.
Same read-out and setting: the value for `COC(=O)c1ccnc(-c2ccc(C3(CN4Cc5ccc(OC)cc5C4=O)NC(=O)NC3=O)cc2)c1` (stereo not drawn) [Compound 55] was less than 10 nM.
Same read-out and setting: the result for `COc1ccc2c(c1)C(=O)N(C[C@@]1(c3ccc(-c4cncc(C(=O)NC5CC5)c4)cc3)NC(=O)NC1=O)C2` [Compound 56] reads less than 10 nM; that for `COC(=O)c1cccnc1-c1ccc([C@]2(CN3Cc4ccc(OC)cc4C3=O)NC(=O)NC2=O)cc1` [Compound 57], less than 10 nM.
On the same count and under the same terms, the value for `COc1ccc2c(c1)C(=O)N(C[C@@]1(c3ccc(-c4cncc(C(N)=O)c4)cc3)NC(=O)NC1=O)C2` [Compound 58] was less than 10 nM; that for `COc1ccc2c(c1)C(=O)N(C[C@@]1(c3ccc(-c4cc(C(N)=O)ccn4)cc3)NC(=O)NC1=O)C2` [Compound 59] was less than 10 nM.
`COc1ccc2c(c1)C(=O)N(C[C@@]1(c3ccc(-c4cc(C(=O)NC5CC5)ccn4)cc3)NC(=O)NC1=O)C2` [Compound 60]: the inhibition constant (Ki) is less than 10 nM.
As for `CNC(=O)c1cccnc1-c1ccc([C@]2(CN3Cc4ccc(OC)cc4C3=O)NC(=O)NC2=O)cc1` [Compound 61], the Ki was less than 10 nM.
In the case of `COc1ccc2c(c1)C(=O)N(C[C@@]1(c3ccc(-c4ncccc4C(=O)NC4CC4)cc3)NC(=O)NC1=O)C2` [Compound 62], the Ki was less than 10 nM.
On to `COc1ccc2c(c1)C(=O)N(C[C@@]1(c3ccc(-c4ncccc4C(=O)N(C)C)cc3)NC(=O)NC1=O)C2` [Compound 63], for which the Ki is less than 10 nM.
As for `COc1ccc2c(c1)C(=O)N(C[C@@]1(c3ccc(-c4cc(C(=O)NC5CC5)cc(C)n4)cc3)NC(=O)NC1=O)C2` [Compound 64], the Ki was less than 10 nM.
As to `COc1ccc2c(c1)C(=O)N(C[C@@]1(c3ccc(-c4cnc(N)c(C(=O)NC5CC5)c4)cc3)NC(=O)NC1=O)C2` [Compound 65], the inhibition constant Ki is less than 10 nM.
Turning to `COc1ccc2c(c1)C(=O)N(C[C@@]1(c3ccc(-c4ncccc4C#N)cc3)NC(=O)NC1=O)C2` [Compound 66], the Ki was less than 10 nM.

What is called Ki is the equilibrium dissociation constant of an inhibitor or competing ligand from its target.
